Laboratory results published in patent US6960614B2, “Oxygenated esters of 4-lodo phenylamino benzhydroxamic acids” (Warner-Lambert Company, priority 2000, dated 2005).

System: MEK
Test: Cellular Assay for Measuring MEK Inhibition (inhibition of ERK phosphorylation in C26 cells, Western blot)
Format: cell-based, murine
Conditions: for IC50: inhibition of ERK phosphorylation in murine colon 26 (C26) carcinoma cells, determined graphically from dose response curve; for % Inhibition @ 0.1 μM / % Inhibition @ 1 μM / % Inhibition @ 10 μM: ERK phosphorylation in C26 cells
Protocol: The evaluation of the compounds as MEK inhibitors was performed in an assay that measures their ability to inhibit phosphorylation of MAP kinase […]) in murine colon 26 (C26) carcinoma cells. Since ERK1 and ERK2 represent the only known substrates for MEK, measurement of inhibition of ERK phosphorylation in cells provides direct readout of cellular MEK inhibition by the compounds of the invention. Briefly, the assay involves treating exponentially growing C26 cells with varying concentrations of the test compound (or vehicle control) for […] at 37° C. Cells are then rinsed free of compound/vehicle and lysed in a solution containing 70 mM NaCl, 50 mM glycerol phosphate, 10 mM HEPES, pH 7.4, 1% Triton X-100, 1 mM Na3VO4, 100 μM PMSF, 10 μM leupeptin and 10 μM pepstatin. Supernatants are then subjected to gel electrophoresis and Western blotting using a primary antibody recognizing dually phosphorylated ERK1 and ERK2. To evaluate total MAPK levels, blots were subsequently ‘stripped’ and re-probed with a 1:1 mixture of polyclonal antibodies recognizing unphosphorylated ERK1 and ERK2.

Compound | IC50 [nM] | % Inhibition @ 0.1 μM [%] | % Inhibition @ 1 μM [%] | % Inhibition @ 10 μM [%]
O=C(NOCC(O)CO)c1cc(Br)c(F)c(F)c1Nc1ccc(I)cc1F (stereo not drawn) [Example 40, 5-Bromo-N-(2,3-dihydroxy-propoxy)-3,4-difluoro-2-(2-fluoro-4-iodo-phenylamino)-benzamide] | 1.4 | – | – | –
O=C(NOCCNc1ccccc1)c1ccc(F)c(F)c1Nc1ccc(I)cc1Cl [Example 232, 2-(2-Chloro-4-iodo-phenylamino)-3,4-difluoro-N-(2-phenylamino-ethoxy)-benzamide] | 22 | – | – | –
O=C(NOCC(O)COc1ccccc1)c1cc(Cl)c(F)c(F)c1Nc1ccc(I)cc1F (stereo not drawn) [Example 192, 5-Chloro-3,4-difluoro-2-(2-fluoro-4-iodo-phenylamino)-N-(2-hydroxy-3-phenoxy-propoxy)-benzamide] | 7 | – | – | –
Cc1cc(I)ccc1Nc1c(C(=O)NOCC(O)CO)ccc(F)c1F (stereo not drawn) [Example 89, N-(2,3-Dihydroxy-propoxy)-3,4-difluoro-2-(4-iodo-2-methyl-phenylamino)-benzamide] | 12 | – | – | –
Cc1cc(I)ccc1Nc1cc(F)ccc1C(=O)NOCCO [Example 5, 4-Fluoro-N-(2-hydroxy-ethoxy)-2-(4-iodo-2-methyl-phenylamino)-benzamide] | 3 | – | – | –
Cc1cc(I)ccc1Nc1c(C(=O)NOCC(C)(C)O)ccc(F)c1F [Example 174, 3,4-Difluoro-N-(2-hydroxy-2-methyl-propoxy)-2-(4-iodo-2-methyl-phenylamino)-benzamide] | 100 | – | – | –
O=C(NOCC1(CO)CC1)c1cc(Br)c(F)c(F)c1Nc1ccc(I)cc1F [Example 220, 5-Bromo-3,4-difluoro-2-(2-fluoro-4-iodo-phenylamino)-N-(1-hydroxymethyl-cyclopropylmethoxy)-benzamide] | – | 35.4 | 88.8 | –
CC(C)(O)CONC(=O)c1ccc(F)c(F)c1Nc1ccc(I)cc1F [Example 177, 3,4-Difluoro-2-(2-fluoro-4-iodo-phenylamino)-N-(2-hydroxy-2-methyl-propoxy)-benzamide] | – | 91.6 | 95.7 | –
O=C(NOCC(O)CN1CCOCC1)c1ccc(F)c(F)c1Nc1ccc(I)cc1Cl (stereo not drawn) [Example 143, 2-(2-Chloro-4-iodo-phenylamino)-3,4-difluoro-N-(2-hydroxy-3-morpholin-4-yl-propoxy)-benzamide] | 600 | – | – | –
CCC(O)CONC(=O)c1ccc(F)c(F)c1Nc1ccc(I)cc1C (stereo not drawn) [Example 109, 3,4-Difluoro-N-(2-hydroxy-butoxy)-2-(4-iodo-2-methyl-phenylamino)-benzamide] | 38 | – | – | –
CC(C)(O)CONC(=O)c1cc(Cl)c(F)c(F)c1Nc1ccc(I)cc1F [Example 179, 5-Chloro-3,4-difluoro-2-(2-fluoro-4-iodo-phenylamino)-N-(2-hydroxy-2-methyl-propoxy)-benzamide] | – | 90.4 | 99.3 | –
O=C(NOCC1(CO)CC1)c1ccc(F)c(F)c1Nc1ccc(Cl)cc1F [Example 224, 2-(4-Chloro-2-fluoro-phenylamino)-3,4-difluoro-N-(1-hydroxymethyl-cyclopropylmethoxy)-benzamide] | – | 0 | 18.1 | –
O=C(NOCC(O)CO)c1ccc(F)c(F)c1Nc1ccc(I)cc1Cl (stereo not drawn) [Example 86, 2-(2-Chloro-4-iodo-phenylamino)-N-(2,3-dihydroxy-propoxy)-3,4-difluoro-benzamide] | 19 | – | – | –
O=C(NOCC(O)COc1ccccc1)c1cc(Cl)c(F)c(F)c1Nc1ccc(F)cc1F (stereo not drawn) [Example 194, 5-Chloro-2-(2,4-difluoro-phenylamino)-3,4-difluoro-N-(2-hydroxy-3-phenoxy-propoxy)-benzamide] | – | 0 | 0 | –
COCCONC(=O)c1cc(F)c(F)c(F)c1Nc1ccc(I)cc1Cl [Example 135, 2-(2-Chloro-4-iodo-phenylamino)-3,4,5-trifluoro-N-(2-methoxy-ethoxy)-benzamide] | – | 0 | 41.4 | –
Cc1cc(I)ccc1Nc1c(C(=O)NOC(C)CO)cc(Cl)c(F)c1F (stereo not drawn) [Example 119, 5-Chloro-3,4-difluoro-N-(2-hydroxy-1-methyl-ethoxy)-2-(4-iodo-2-methyl-phenylamino)-benzamide] | – | 87.4 | 97.9 | –

Compound | IC50 [nM] | % Inhibition @ 0.1 μM [%] | % Inhibition @ 1 μM [%] | % Inhibition @ 10 μM [%]
O=C(NOCCC(O)CO)c1cc(F)c(F)c(F)c1Nc1ccc(I)cc1Cl (stereo not drawn) [Example 93, 2-(2-Chloro-4-iodo-phenylamino)-N-(3,4-dihydroxy-butoxy)-3,4,5-trifluoro-benzamide] | – | 4 | 79.1 | –
O=C(NOCC(O)CN1CCOCC1)c1cc(Cl)c(F)c(F)c1Nc1ccc(I)cc1Cl (stereo not drawn) [Example 149, 5-Chloro-2-(2-chloro-4-iodo-phenylamino)-3,4-difluoro-N-(2-hydroxy-3-morpholin-4-yl-propoxy)-benzamide] | 170 | – | – | –
CC(O)CONC(=O)c1ccc(F)c(F)c1Nc1ccc(Cl)cc1F (stereo not drawn) [Example 168, 2-(4-Chloro-2-fluoro-phenylamino)-3,4-difluoro-N-(2-hydroxy-propoxy)-benzamide] | – | 48.8 | 89.5 | –
O=C(NOCC(O)C(F)(F)F)c1cc(Cl)c(F)c(F)c1Nc1ccc(F)cc1F (stereo not drawn) [Example 211, 5-Chloro-2-(2,4-difluoro-phenylamino)-3,4-difluoro-N-(3,3,3-trifluoro-2-hydroxy-propoxy)-benzamide] | – | – | 35 | 71.9
CCC(O)CONC(=O)c1cc(Cl)c(F)c(F)c1Nc1ccc(F)cc1F (stereo not drawn) [Example 116, 5-Chloro-2-(2,4-difluoro-phenylamino)-3,4-difluoro-N-(2-hydroxy-butoxy)-benzamide] | – | – | 62.8 | 75.8
O=C(NOCCCO)c1ccc(F)c(F)c1Nc1ccc(I)cc1F [Example 32, 3,4-Difluoro-2-(2-fluoro-4-iodo-phenylamino)-N-(3-hydroxy-propoxy)-benzamide] | 4.4 | – | – | –
O=C(NOCC(O)CO)c1cc(Br)c(F)c(F)c1Nc1ccc(I)cc1Cl (stereo not drawn) [Example 88, 5-Bromo-2-(2-chloro-4-iodo-phenylamino)-N-(2,3-dihydroxy-propoxy)-3,4-difluoro-benzamide] | 110 | – | – | –
Cc1cc(I)ccc1Nc1c(C(=O)NOCC(O)COc2ccccc2)cc(Cl)c(F)c1F (stereo not drawn) [Example 190, 5-Chloro-3,4-difluoro-N-(2-hydroxy-3-phenoxy-propoxy)-2-(4-iodo-2-methyl-phenylamino)-benzamide] | – | 51.5 | 94.6 | –
O=C(NOCC(O)COc1ccccc1)c1ccc(F)c(F)c1Nc1ccc(I)cc1F (stereo not drawn) [Example 191, 3,4-Difluoro-2-(2-fluoro-4-iodo-phenylamino)-N-(2-hydroxy-3-phenoxy-propoxy)-benzamide] | 6 | – | – | –
Cc1cc(I)ccc1Nc1c(C(=O)NOCC(C)O)cc(Cl)c(F)c1F (stereo not drawn) [Example 163, 5-Chloro-3,4-difluoro-N-(2-hydroxy-propoxy)-2-(4-iodo-2-methyl-phenylamino)-benzamide] | – | 88.9 | 95.1 | –
COCCONC(=O)c1cc(Cl)c(F)c(F)c1Nc1ccc(I)cc1C [Example 141, 5-Chloro-3,4-difluoro-2-(4-iodo-2-methyl-phenylamino)-N-(2-methoxy-ethoxy)-benzamide] | – | 38 | 92.7 | –
O=C(NOCC(O)CN1CCOCC1)c1ccc(F)c(F)c1Nc1ccc(Cl)cc1F (stereo not drawn) [Example 155, 2-(4-Chloro-2-fluoro-phenylamino)-3,4-difluoro-N-(2-hydroxy-3-morpholin-4-yl-propoxy)-benzamide] | – | 0 | 30.9 | –
O=C(NOCC1(CO)CC1)c1ccc(F)c(F)c1Nc1ccc(F)cc1F [Example 222, 2-(2,4-Difluoro-phenylamino)-3,4-difluoro-N-(1-hydroxymethyl-cyclopropylmethoxy)-benzamide] | – | – | 9.6 | 55.6
Cc1cc(I)ccc1Nc1c(C(=O)NOCCCO)ccc(F)c1F [Example 103, 3,4-Difluoro-N-(3-hydroxy-propoxy)-2-(4-iodo-2-methyl-phenylamino)-benzamide] | 487 | – | – | –
COCCONC(=O)c1ccc(F)c(F)c1Nc1ccc(I)cc1C [Example 136, 3,4-Difluoro-2-(4-iodo-2-methyl-phenylamino)-N-(2-methoxy-ethoxy)-benzamide] | 250 | – | – | –
CC(O)CONC(=O)c1cc(Cl)c(F)c(F)c1Nc1ccc(I)cc1F (stereo not drawn) [Example 165, 5-Chloro-3,4-difluoro-2-(2-fluoro-4-iodo-phenylamino)-N-(2-hydroxy-propoxy)-benzamide] | 4 | – | – | –
